Test results: the Deep4Chem optical property database
Blank lines part the entries; values can stand above or below the molecule they belong to.

Experiment: photoluminescence quantum yield (fraction); solvent given as SMILES
[1] = in O=P(c1ccccc1)(c1ccccc1)c1ccccc1Oc1ccccc1P(=O)(c1ccccc1)c1ccccc1

Compound: COc1ccc(/C=C/C2=CC(/C=C/c3ccc(OC)cc3)=[O+][B-](OC(C)=O)(OC(C)=O)O2)cc1
photoluminescence quantum yield (in C1CCOC1): 0.95 | photoluminescence quantum yield (in CC#N): 0.85 | photoluminescence quantum yield (in CC(C)=O): 0.88 | photoluminescence quantum yield (in CS(C)=O): 0.83 | photoluminescence quantum yield (in Cc1ccccc1): 0.98 | photoluminescence quantum yield (in ClC(Cl)Cl): 0.91 | photoluminescence quantum yield (in ClCCl): 0.92

Compound: CC1(C)c2ccccc2N(c2cc3c4ccccc4n4c5ccccc5c(c2)c34)c2ccccc21
photoluminescence quantum yield [1]: 0.95

photoluminescence quantum yield (in CC#N): 0.48 | photoluminescence quantum yield (in CO): 0.39 | photoluminescence quantum yield (in ClCCl): 0.57
Compound: COc1ccc(-c2[nH]c(=O)n3c2-c2ccccc2C3=O)c(OC)c1

Compound: COc1ccc(N(c2ccc(OC)cc2)c2cc3ccc4cc(B(c5c(C)cc(C)cc5C)c5c(C)cc(C)cc5C)cc5ccc(c2)c3c45)cc1
photoluminescence quantum yield (in C1CCOC1): 0.44 | photoluminescence quantum yield (in CC(C)=O): 0.21 | photoluminescence quantum yield (in CCCCCC): 0.22 | photoluminescence quantum yield (in Cc1ccccc1): 0.27 | photoluminescence quantum yield (in ClC(Cl)Cl): 0.23 | photoluminescence quantum yield (in ClCCl): 0.42

photoluminescence quantum yield (in C1CCCCC1): 0.0086 | photoluminescence quantum yield (in c1ccccc1): 0.00099
Compound: Nc1ccc2c(c1)C(=O)c1ccccc1-2

photoluminescence quantum yield (in ClC(Cl)Cl): 0.23
Compound: CCn1c2ccccc2sc2c(C#N)c3oc4ccccc4oc3c(C#N)c21

Compound: CC1(C)c2ccccc2N(c2ccc3c(c2)Oc2ccccc2S3(=O)=O)c2ccccc21
photoluminescence quantum yield (in Cc1ccccc1): 0.48 | photoluminescence quantum yield [1]: 0.98

photoluminescence quantum yield (in C1CCCCC1): 0.84 | photoluminescence quantum yield (in CC#N): 0.81 | photoluminescence quantum yield (in CC(C)O): 0.84 | photoluminescence quantum yield (in CO): 0.72 | photoluminescence quantum yield (in CS(C)=O): 0.91 | photoluminescence quantum yield (in ClC(Cl)Cl): 0.87 | photoluminescence quantum yield (in c1ccccc1): 0.85
Compound: CN(C)c1ccc2nc(-c3ccc(C(=O)OC(C)(C)C)cc3)sc2c1

Compound: CC(C)[Si](C#Cc1c2ccccc2c(C#Cc2c3ccccc3c(C#Cc3c4ccccc4c(C#Cc4c5ccccc5c(C#Cc5c6ccccc6c(C#C[Si](C(C)C)(C(C)C)C(C)C)c6ccccc56)c5ccccc45)c4ccccc34)c3ccccc23)c2ccccc12)(C(C)C)C(C)C
photoluminescence quantum yield (in Cc1ccccc1): 0.018

photoluminescence quantum yield (in ClCCCl): 0.022
Compound: N#Cc1ccc2nc3[nH]c(=O)[nH]c(=O)c3nc2c1

photoluminescence quantum yield (in ClCCl): 0.16 | photoluminescence quantum yield (in OCC(F)(F)F): 0.02
Compound: C=CCOc1nnc(OCCC(F)(F)C(F)(F)C(F)(F)C(F)(F)C(F)(F)C(F)(F)C(F)(F)C(F)(F)F)nn1

photoluminescence quantum yield (in CS(C)=O): 0.03
Compound: COc1cc(OC)cc(C2=C3C(C)=C(I)C(C)=[N+]3[B-](F)(F)n3c(C)c(I)c(C)c32)c1

photoluminescence quantum yield (in ClC(Cl)Cl): 0.074
Compound: COc1ccc(-n2c3c4ccccc4nc(-c4ccc(C#N)cc4)c3c3c2c2c(-c4ccc(C#N)cc4)nc4ccccc4c2n3-c2ccc(OC)cc2)cc1

photoluminescence quantum yield (in CN(C)C=O): 0.89
Compound: NCCCCCCCCCCCCN1C(=O)c2ccc3c4ccc5c6c(ccc(c7ccc(c2c37)C1=O)c64)C(=O)NC5=O

photoluminescence quantum yield (in ClCCl): 0.027
Compound: CCCCCCOc1cc(N(CC)CC)ccc1/C=C(\C#N)c1ccc(/C=C/C(=C(C#N)C#N)c2ccc(N(c3ccccc3)c3ccccc3)cc2)s1

photoluminescence quantum yield (in ClCCl): 0.3
Compound: CC(C)(C)c1ccc2c(c1)c1cc(C(C)(C)C)ccc1n2-c1ccc(C#Cc2ccc(C#Cc3ccc(C=C(C#N)C#N)cc3)cc2)cc1

photoluminescence quantum yield (in CO): 0.45
Compound: Cc1ccc(C2=C3C=CC(Nc4ccccc4)=[N+]3[B-](F)(F)n3c(Nc4ccccc4)ccc32)cc1

Compound: Cc1ccc(C2=C3C=CC(c4ccccc4)=[N+]3[B-](F)(F)n3c(Cl)ccc32)cc1
photoluminescence quantum yield (in C1CCCCC1): 0.076 | photoluminescence quantum yield (in C1CCOC1): 0.084 | photoluminescence quantum yield (in C1COCCO1): 0.079 | photoluminescence quantum yield (in CCOC(C)=O): 0.046 | photoluminescence quantum yield (in CO): 0.037 | photoluminescence quantum yield (in Cc1ccccc1): 0.13 | photoluminescence quantum yield (in ClC(Cl)Cl): 0.095

photoluminescence quantum yield (in ClCCl): 0.282
Compound: Cc1ccc(-n2c(-c3ccc(N(c4ccc(-c5ccc(N(c6ccc(-c7nc8c9ccccc9c9ccccc9c8n7-c7ccc(C)cc7)cc6)c6ccc(-c7nc8c9ccccc9c9ccccc9c8n7-c7ccc(C)cc7)cc6)cc5)cc4)c4ccc(-c5nc6c7ccccc7c7ccccc7c6n5-c5ccc(C)cc5)cc4)cc3)nc3c4ccccc4c4ccccc4c32)cc1

photoluminescence quantum yield (in ClCCl): 0.69
Compound: CCCCn1c(-c2ccc(-c3nnc(-c4ccc(-c5nc(-c6ccccc6)c(-c6ccccc6)n5CCCC)cc4)o3)cc2)nc(-c2ccccc2)c1-c1ccccc1

photoluminescence quantum yield (in C1COCCO1): 0.611 | photoluminescence quantum yield (in CN(C)C=O): 0.352 | photoluminescence quantum yield (in CS(C)=O): 0.009
Compound: CC(C)(C)NS(=O)(=O)c1ccc2c(c1)C(=O)/C(=C1\Sc3ccc(S(=O)(=O)NC(C)(C)C)cc3C1=O)S2

photoluminescence quantum yield (in ClCCl): 0.11
Compound: COc1ccc(/C=C/c2cc(/C=C/c3ccc(OC)cc3)nc(/C=C/c3ccc4cc(OC)ccc4c3)n2)cc1

photoluminescence quantum yield (in c1ccccc1): 0.034
Compound: CCOC(=O)CSc1nc(C)c(CC)c(C#N)c1C#N

photoluminescence quantum yield (in ClC(Cl)Cl): 0.961
Compound: c1ccc2c(-c3ccncc3)c3c(nc2c1)-c1cc2c(cc1CC3)-c1nc3ccccc3c(-c3ccncc3)c1CC2

photoluminescence quantum yield (in C1CCCCC1): 0.04
Compound: CB1C=Cc2ccc3ccccc3c2N1c1ccccc1

photoluminescence quantum yield (in ClC(Cl)Cl): 0.783
Compound: N#Cc1ccc(C#Cc2ccc(C#Cc3ccccc3C#N)cc2C#N)cc1

photoluminescence quantum yield (in CCO): 0.16
Compound: CCOC(=O)c1cc(C(=O)OCC)c2cc(O)ccc2n1

Compound: Fc1c(F)c(-n2c3ccccc3c3ccccc32)c(F)c(F)c1/C=C/C(=C(c1ccccc1)c1ccccc1)c1ccccc1
photoluminescence quantum yield (in Cc1ccccc1): 0.001

photoluminescence quantum yield (in ClCCl): 0.16
Compound: CCOc1cccc2c1O[B-](F)(F)[n+]1c3c(c4c(c1-2)-c1ccccc1CC4)-c1ccccc1CC3

Compound: COc1cc(OC)c(C2=C3C(C)=CC(C)=[N+]3[B-](F)(F)n3c(C)cc(C)c32)c(OC)c1
photoluminescence quantum yield (in C1CCOC1): 0.78 | photoluminescence quantum yield (in CC#N): 0.55 | photoluminescence quantum yield (in CC(=O)C(C)(C)C): 0.69 | photoluminescence quantum yield (in CC(C)=O): 0.8 | photoluminescence quantum yield (in CCCCCC): 0.95 | photoluminescence quantum yield (in CCOC(C)=O): 0.64 | photoluminescence quantum yield (in CO): 0.68

photoluminescence quantum yield (in CS(C)=O): 0.6
Compound: N#Cc1c(/C=C/c2ccc(N(c3ccccc3)c3ccccc3)cc2)cc(-c2ccccc2)cc1N1CCCCC1

photoluminescence quantum yield (in C1COCCO1): 0.002
Compound: COC(=O)c1ccc(/C=C2\C=C(c3ccc([N+](=O)[O-])cc3)OC2=O)cc1

photoluminescence quantum yield (in CCO): 0.27 | photoluminescence quantum yield (in O): 0.18
Compound: CC/[NH+]=c1\cc2oc3cc(NCCN)c4ccccc4c3nc-2cc1C

photoluminescence quantum yield (in C1CCOC1): 0.16
Compound: CCC1(CC)c2ccccc2-c2c1c1c(c3c2C(CC)(CC)c2cc(/C=C/c4cccs4)ccc2-3)C(CC)(CC)c2cc(/C=C/c3cccs3)ccc2-1

photoluminescence quantum yield (in CCO): 0.39
Compound: CC/[NH+]=c1\cc2oc3cc(NCCC(=O)NC(C)C(=O)OC)c4ccccc4c3nc-2cc1C (stereo unspecified)

photoluminescence quantum yield (in C1COCCO1): 0.36
Compound: COc1ccc(/C=C/C2=CC(/C=C/c3ccc(OC)cc3)=[N+]3C2=C(c2ccc(-c4ccc5ccccc5n4)s2)c2c(/C=C/c4ccc(OC)cc4)cc(/C=C/c4ccc(OC)cc4)n2[B-]3(F)F)cc1

photoluminescence quantum yield (in ClCCl): 0.35
Compound: CCN(CC)c1ccc2cc(-c3nc4cc(C(=O)Nc5ccccc5)ccc4o3)c(=O)oc2c1

photoluminescence quantum yield (in ClCCl): 0.52
Compound: COc1ccc(-c2c3ccccc3c(-c3ccc(OC)cc3)c3cc4sc(C)cc4cc23)cc1

photoluminescence quantum yield (in ClC(Cl)Cl): 0.16
Compound: FC(F)(F)c1ccc(-c2nc(-c3ccc(C(F)(F)F)cc3)n3ccccc23)cc1

photoluminescence quantum yield (in CCO): 0.0057 | photoluminescence quantum yield (in ClCCl): 0.0137 | photoluminescence quantum yield (in O): 0.01
Compound: Oc1c(-c2ccco2)cccc1-c1nc2ccccc2s1

photoluminescence quantum yield (in ClCCl): 0.58
Compound: CCCCC(CC)COc1ccc2nc(-c3ccc(-c4ccccc4)s3)sc2c1 (stereo unspecified)

photoluminescence quantum yield (in C1COCCO1): 0.87
Compound: CCC12C(=C3C(=C4c5ccc(-c6ccccc6)cc5S(=O)(=O)C41CC)C(F)(F)C(F)(F)C3(F)F)c1ccc(-c3ccccc3)cc1S2(=O)=O (stereo unspecified)
